In brackets after ≈: the same amount, converted by molar mass.
System: HL 60 cells
Test: MTT cytotoxicity / antiproliferative assay on HL 60 cells
Format: cell-based
Conditions: Homo sapiens, Embodiment 1, 24 hours, read-out: 50% inhibition concentration (IC50) on HL 60 cells by MTT assay
Description: Human leukemia HL 60 cell line was purchased from American Type Culture Collection (ATCC, Manassas, Va.) and incubated in RPMI 1640 medium supplemented with 10% fetal calf serum, 2 mM glutamine, 100 units/ml penicillin and 100 μg/ml streptomycin at 37° C. in a humidified atmosphere of 5% carbon dioxide.
Cell viability was determined by the trypan blue dye exclusion and cytotoxicity was assessed by MTT assay. First, 1×10^5 HL 60 cells were plated in 96-well plates and treated with different concentrations of EEAC dissolved in dimethyl sulfoxide (DMSO) at the concentrations of 0 to 150 μg/ml for 24 hours. Death cells then were stained with trypan blue, and the survival cells were calculated with hemocytometer. In MTT assay, 1.2 mg/ml MTT was added in each well, which was incubated for 2 hours to form […], formazan. Formazan was dissolved in DMSO, and absorbance was detected at a wavelength of 570 nm.

Question: Which IC50 does the source give for `C=C(CC[C@@H](C)C1CCC2C3=C(C(=O)CC21C)C1(C)CCC(=O)[C@@H](C)C1CC3=O)C(C)C(=O)O` (stereo partly shown) [zhankuic acid A] here?
Answer: 5.45 µg/mL (≈ 11.6 µM)

— patent US8883167B2, “Ethanol extract of Antrodia camphorata for inducing apoptosis and preparation method thereof” (Kaohsiung Medical University, priority 2009, dated 2014)
